Data taken from US20180258404A1, “METHODS OF GENERATING NEPHRONS FROM HUMAN PLURIPOTENT STEM CELLS” (THE BRIGHAM AND WOMEN'S HOSPITAL, INC., priority 2015, published 2018).

Legend:
NPCs = assay: Induction of pre-tubular aggregates and renal vesicles from nephron progenitor cells; type: cell-based, human
Protocol: (§1) hPSCs grown on Geltrex were washed once with PBS (Life Technologies, #10010-049) and dissociated into single cells with Accutase ([…] Technologies, #07920). Cells were then plated at a density of 2-2.4×10^4 (H9) or 1-1.4×10^4 (HDF, 2C) cells/cm^2 onto 24-well tissue culture plates (TPP, #92024) coated with 1% Geltrex in ReproFF2 supplemented with the ROCK inhibitor Y27632 (10 μM) (TOCRIS, #1254) and FGF2 (10 ng/ml). After 72 hours, cells (50% confluent) were briefly washed in PBS and then cultured in basic differentiation medium consisting of Advanced RPMI 1640 (Life Technologies, #12633-020) and 1X L-GlutaMAX (Life Technologies, #35050-061) supplemented with CHIR99021 (8-10 μM) (TOCRIS, #4423) for 4 days to induce late primitive streak cells Noggin (5 ng/ml) was also used for hiPSC differentiation in addition to CHIR (10 μM). To induce posterior intermediate mesoderm, cells were then cultured in Advanced RPMI+1X L-GlutaMAX+activin (10 ng/mL) (R&D, #338-AC-050) for 3 days. For induction of nephron progenitor cells, the media was then changed to Advanced RPMI+1X L-GlutaMAX+FGF9 (10 ng/ml) (R&D, #273-F9-025/CF) for 7 days. CHIR (3 μM) was added to the media from day 9 to 11 of differentiation to induce renal vesicles. On day 14, cells were switched to the basic differentiation medium and cultured for an additional 7 to 14 days (total of 21 to 28 days). The medium was replaced every 2 or 3 days. A variety of growth factors and small molecules were tested for differentiation.
hPSCs on day 9 of differentiation, which represents metanephric mesenchyme cells, were dissociated with Accutase and resuspended in the basic differentiation medium supplemented with CHIR (3 μM) and FGF9 (10 ng/mL), and placed in 96-well, round bottom, ultra-low attachment plates (Corning, #7007) at 1×10^5 cells per well. The plates were centrifuged at 1500 rpm for 15 seconds, and the cells then cultured at 37° C., 5% CO2 for 2 days. The medium was then changed to the basic differentiation medium supplemented with FGF9 10 ng/mL and cultured for 3 more days. […]

NPCs in 3D culture = assay: Growth factor and small molecule screening in 3D culture (LTL+ tubules); type: cell-based, human; conditions: added in 3D culture from day 10
Protocol: FIG. 10. Spontaneous differentiation of SIX2+ cells into nephrons and growth factor screening in 3D culture. (a) Staining with PAX8 and LHX1 in hESCs on day 10 of the differentiation. hESCs were differentiated with CHIR 8 µM for 4 days, activn 10 ng/ml for 3 days, and FGF9 10 ng/ml for 3 days. […] Scale bar: 50 μm. (b) Brighfield imaging for hESCs on day 10 and 21 of the differentiation. FGF9 was withdrawn on day 10, and cells were cultured in the basic medium by day 21. Scale bars: 50 μm. (c) Brightfield and immunocytochemistry for LTL and NPHS1 in hESCs on day 28 of the differentiation. Scale bar: 50 μm. (d) The protocol for growth factor screening. Cells were replated to 3D culture on day 10, and the listed growth factors and small molecules were tested. (e) The number of LTL+ tubules in the organoids. […] (f) Brightfield imaging of 3D co-culture with an ureteric bud cell sphere. Scale bar: 100 μm. (g) Whole-mountstaining for LTL in the organoids on day 16. Scale bar: 100 μm. (h) Immunohistochemistry of the organoids on day 16. Scale bars: 50 μm. LTL: lotus tetragonolobus lectin. NPHS1: Nephrin.
To test whether the formation of epithelial structures could be facilitated by 3D culture conditions, on day 10, at the time of FGF9 withdrawal, the Inventors replated NPCs in ultra-low-attachment, round-bottom 96-well plates and cultured them for 1 week. NPCs formed 3D spherical aggregates, one per 96-well, in suspension culture.

[1] = test system: human embryonic stem cells (hESCs; H9); assay: Induction of late primitive streak from hESCs with CHIR; type: cell-based; conditions: CHIR 8 μM over 4 days
Protocol: as §1, with “The medium was replaced every 2 or 3 days. A variety of growth factors and small molecules were tested for differentiation.” left out

[2] = test system: hPSC-derived renal vesicles; assay: Kidney development analysis (Notch inhibition) in kidney organoids; type: cell-based, human; conditions: DAPT 10 μM from day 14 to 21, 2D and 3D culture
Protocol: FIG. 6. Modeling kidney development and injury in kidney organoids. (a) Schematic for kidney development analysis and nephrotoxicity assay. (b) Representative images of immunohistochemistry in structures derived from hESCs treated with DAPT 10 μM from day 14 to 21. n=4. Notch inhibition suppressed proximal tubule formation. Scale bars: 50 μm. […] Scale bars: 50 μm. […] (d) A low magnification image of gentamicin-treated organoids. Scale bar: 100 μm. CDH1: Cadherin-1 (E-cadherin). PODXL: Podocalyxin-like (Podocalyxin). LTL: lotus tetragonolobus lectin. KIM-1: kidney injury molecule-1. (e) Real-time quantitative PCR of KIM-1 in kidney organoids treated with gentamicin at indicated doses. Data is expressed as mean+/−SEM (n=10). […] Scale bars: 50 μm.
FIG. 12. Kidney development analysis. (a) DAPT was used to suppress Notch signaling from day 14 to 21. (b) CDH1, PODXL and LTL expression on day 21 in cells derived from hESCs in 2D culture. Scale bars: 50 (c) Percentage of LTL+ nephron structures in control and DAPT-treated on day 21. The nephron number was counted as CDH1+ tubules from 10 fields (×20 magnification) of each sample (n=2). CDH1: Cadherin-1 (E-cadherin). PODXL: Podocalyxin-like (Podocalyxin). […]

ARPKD-iPS organoids = assay: ARPKD organoid cyst formation in 3D culture; type: cell-based, human; conditions: forskolin treatment, 96-well plates, 24 in 24 organoids
From the text: FIG. 26. Autosomal recessive polycystic kidney disease (ARPKD), organoid in 3D culture. This was done in 96-well plates. Cyst formation was 100% (24 in 24 organoids) in ARPKD-iPS with forskolin treatment. PKHD1 mutants were generated with CRISPR. The cystic phenotype appear from very early stage (day 22˜), meaning high-scale drug screening can be done, since media change will be much less frequent.

[3] = test system: 3D hESC-derived kidney organoids; assay: Nephrotoxicity assay in 3D kidney organoids; type: cell-based, human
Protocol: Organoids were then fixed with 4% paraformaldehyde (Electron Microscopy Sciences, #RT15710) for 20 minutes for both whole-mount and frozen section immunohistochemistry.
3D kidney organoids were fixed with 4% paraformaldehyde in PBS for 20 minutes at RT in a 96-well plate, then washed three times in PBS. The organoids were then incubated in blocking buffer (0.3% Triton X-100 and 5% normal donkey serum) for 1 hour at RT, then washed three times in PBS. The organoids were incubated with primary antibodies in antibody dilution buffer (0.3% Triton X-100 and 1% BSA in PBS) overnight at 4° C. The organoids were then washed with PBS three times for 1 hour each, with the third washing performed overnight at 4° C. For immunostaining with biotinylated LTL (Vector Labs, #B-1325), a Streptavidin/Biotin Blocking Kit (Vector Labs, #SP-2002) was used according to the manufacturer's protocol. The organoids were incubated with secondary antibodies in antibody dilution buffer for 1 hour at RT, then washed with PBS three times for 30 minutes each. Nuclei were counterstained with DAPI for more than 30 minutes. […]
Total RNA was purified from cells using the RNAeasy MiniKit (Qiagen). […] Quantitative RT-PCR was performed using the iQ5 Multicolor Real-Time PCR Detection System (Bio-Rad). […] Values were calculated by the delta delta CT method. […]

From the text for podocytes: Modeling glomerular diseases. The Inventors used puromycin and adriamycin which is known to induce FSGS (focal-segmental glomerulosclerosis).

Cc1c[nH]c(-c2cnc(NCCNc3ccc(C#N)cn3)nc2-c2ccc(Cl)cc2Cl)n1 [CHIR, CHIR99021]
size of the organoids (NPCs; 3D culture from day 9, studied on day 14, versus basic medium (ARPMI)): increased the size of the organoids
number of cells that downregulated SIX2 and co-expressed PAX8 and LHX1 (NPCs; CHIR 3 μM for 2 days from day 9 with FGF9 days 7-14, 2D culture): markedly increased
PAX8+LHX1+ differentiated cells by flow cytometry (NPCs; CHIR 3 μM for 2 days from day 9 with FGF9 days 7-14, 2D culture, day 14): ~75.9%
number of LTL+ tubules in the organoids (NPCs in 3D culture): did not significantly increase the number of LTL+ tubules
induction of T+TBX6+ primitive streak cells [1]: robustly induced and maintained a population of T+TBX6+ primitive streak cells

C[C@H](NC(=O)Cc1cc(F)cc(F)c1)C(=O)N[C@H](C(=O)OC(C)(C)C)c1ccccc1 [DAPT]
proximal tubule formation [2]: marked suppression of proximal tubule formation

COc1cccc2c1C(=O)c1c(O)c3c(c(O)c1C2=O)C[C@@](O)(C(=O)CO)C[C@@H]3O[C@H]1C[C@H](N)[C@H](O)[C@H](C)O1 [adriamycin]
structures of podocytes (podocytes): the structures of podocytes were disrupted

C=C[C@@]1(C)CC(=O)[C@]2(O)[C@@]3(C)[C@@H](O)CCC(C)(C)[C@@H]3[C@H](O)[C@H](OC(C)=O)[C@@]2(C)O1 [forskolin]
cyst formation (ARPKD-iPS organoids): 100%

COc1ccc(C[C@H](N)C(=O)N[C@H]2[C@@H](O)[C@H](n3cnc4c(N(C)C)ncnc43)O[C@@H]2CO)cc1 [puromycin]
structures of podocytes (podocytes): the structures of podocytes were disrupted

gentamicin
KIM-1 expression by immunostaining (whole mount and frozen sections) ([3]; gentamicin 5 mg/mL for 48 hours after day 21): clear KIM-1 expression at the luminal surface of LTL+tubules but not in E-cadherin+ tubules
KIM-1 by real-time PCR ([3]; gentamicin 5×10^−4, 5×10^−2, or 5 mg/mL for 48 hours): KIM-1 upregulation by gentamicin in a dose-dependent manner
